“Also recorded” adds a separate entry of the source. Read-outs that look alike come from different tables or passages of the source.
What was measured:
[1] = target: T1, murine slc26a3 (Mus musculus, UniProt Q9WVC8); assay: slc26a3-mediated Cl-/I- exchange, YFP fluorescence quenching in FRT-YFP-slc26a3 cells; type: cell-based
T1 construct: host or cells: Fischer rat thyroid (FRT) cells expressing YFP, clonal line FRT-YFP-slc26a3
T1 sequence (Q9WVC8 1-757): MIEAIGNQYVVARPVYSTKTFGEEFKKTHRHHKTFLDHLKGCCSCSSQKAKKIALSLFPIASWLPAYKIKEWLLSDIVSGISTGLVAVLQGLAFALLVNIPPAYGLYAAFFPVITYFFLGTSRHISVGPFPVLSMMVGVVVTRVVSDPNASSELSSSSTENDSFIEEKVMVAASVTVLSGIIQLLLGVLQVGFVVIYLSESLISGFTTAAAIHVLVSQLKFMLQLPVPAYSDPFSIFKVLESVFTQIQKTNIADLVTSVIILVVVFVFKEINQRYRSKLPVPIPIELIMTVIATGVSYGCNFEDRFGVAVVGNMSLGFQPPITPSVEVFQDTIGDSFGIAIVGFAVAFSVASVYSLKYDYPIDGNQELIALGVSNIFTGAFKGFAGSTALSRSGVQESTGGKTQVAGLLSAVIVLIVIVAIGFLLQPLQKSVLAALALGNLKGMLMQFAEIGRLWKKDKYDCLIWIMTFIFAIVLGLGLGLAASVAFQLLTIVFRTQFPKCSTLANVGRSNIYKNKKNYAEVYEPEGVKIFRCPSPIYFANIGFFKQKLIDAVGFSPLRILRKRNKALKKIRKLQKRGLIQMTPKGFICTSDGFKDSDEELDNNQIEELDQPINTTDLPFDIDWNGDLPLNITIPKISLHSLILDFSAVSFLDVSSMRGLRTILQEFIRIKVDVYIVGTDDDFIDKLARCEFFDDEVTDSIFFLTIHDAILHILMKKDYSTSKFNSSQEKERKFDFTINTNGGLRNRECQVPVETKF
Experimental: High-throughput screening to identify slc26a3 inhibitors using FRT-YFP- slc26a3 cells was done with a semi-automated Beckman Coulter (Indianapolis, IN) platform with FLUOstar OMEGA plate readers (BMG Labtech, Cary, NC), essentially as described for discovery of pendrin inhibitors. Initial screening was done of ~50,000 drug-like synthetic small molecules (ChemDiv, San Diego, CA) at a concentration of 25 µM using a Cl^-/I^- exchange protocol to assay slc26a3 function. Following initial screening, compound analogs were purchased (ChemDiv, San Diego, CA) to generate structure-activity data.
For the screening, FRT-YFP-slc26a3 cells were plated in 96-well black-walled, clear-bottom tissue culture plates (Corning Life Sciences, Tewksbury, MA) at a density of 20,000 cells/well and cultured for 48 hours until confluent. For screening, cells were washed twice in PBS and incubated for 10 min in 100 µl PBS containing test compounds prior to assay of slc26a3 function. Assays were done using a FLUOstar OMEGA plate reader (BMG Labtech, Cary, NC) over 12 s with initial fluorescence recorded over 1 s prior to addition of 100 µl NaI-substituted PBS (137 mM NaCl replaced by 137 mM NaI) to drive Cl^-/I^- exchange. The initial rate of Cl^-/I^- exchange was determined from fluorescence intensity by single exponential regression. All plates contained wells with negative (1 % DMSO) and positive (350 µM niflumic acid) controls.
Screening was done using an FRT cell line stably expressing murine slc26a3 and a halide-sensitive yellow fluorescent protein (FRT-YFP- slc26a3 cells). FRT cells were used because of their low intrinsic permeability to anions that are transported by slc26a3, and because of their good adherence and rapid growth on uncoated plastic. As diagrammed in FIG. 1A, slc26a3-mediated transport was assayed from the kinetics of YFP fluorescence quenching in response to extracellular addition of I^- to drive Cl^-/I^- exchange; transport inhibition reduces the rate of fluorescence decrease.

[2] = Pharmacokinetics in mice, serum LC/MS; type: in vivo; conditions: for oral bioavailability / bioavailability: 5 mg/kg (A1, A260) or 10 mg/kg (A270), mice; for bioavailability: mouse, serum, po, n=3, read-out: oral bioavailability (mean±SEM)
Experimental: Pharmacokinetics of the Compound A1(DRAinh-A250) and analogs (DRAinh-A260 and DRAinh-A270) was determined in mice. After single dose intraperitoneal or oral administration (5 mg/kg for Compound A1 and DRAinh-A260, 10 mg/kg for DRAinh-A270), blood samples were collected via retro-orbital puncture at different time points and serum was separated by centrifugation. Compound concentrations were measured in serum using LC/MS. FIGS. 10A, 10B, 10C show the respective serum concentration of Compound A1 (FIG. 10A), DRAinh-A260 (FIG. 10B) and DRAinh-A270 (FIG. 10C) after single oral or intraperitoneal administration at zero time (n=3 mice per compound per administration route). Compound A1 had predicted therapeutic levels for at least 24 hours after single dose oral or intraperitoneal administration. […] (mean±SEM): 53.9±6.5% for Compound A1, 16.4±6.6% for DRAinh-A260, and 39.3±3.5% for DRAinh-A270.

[3] = tested on: oxalate nephropathy model in mice; assay: Oxalate nephropathy model induced by high oxalate diet; type: in vivo
Experimental: To induce oxalate nephropathy, mice were fed with high oxalate (0.67%) and low calcium (<0.01%) diet as described (Am J Physiol Renal Physiol 310: F785-F795, 2016). […] Mice were started high oxalate diet at Day 0 and treated with Compound A1 (5 mg/kg) or vehicle by oral gavage twice daily starting at Day 0. At Day 14, urine was collected for 24 hours in metabolic cages and centrifuged to examine urine sediment, then mice were euthanized and kidneys were used for histological analysis.
The kidneys harvested at Day 14 were examined for kidney damage using H & E staining, and for crystal deposition using polarized light microscopy.
Similar experiments in oxalate nephropathy model were performed using DRAinh-A270. For these experiments mice had 3-hour urine collections at Day 0, 7 and 14. High oxalate diet was started on Day 0 after initial urine collection and mice were given DRAinh-A270 or vehicle intraperitoneally twice daily for 14 days.

[4] = 5 mg/kg oral twice daily, Day 14

Row | Compound | reversibility of inhibition ([1]; 1 µM for 10 min, then washed three times) | IC50 ([1]; selected class A analogs, Table 1, Cl-/I- exchange, read-out: IC50) [nM] | IC50 ([1]; summary statement, read-out: IC50 for inhibition of SLC26A3-mediated anion exchange) [nM] | oral bioavailability [2] [%] | time with predicted therapeutic serum levels ([2]; 5 mg/kg single dose oral or intraperitoneal) | bioavailability [2] [%] | insoluble urine sediment [3, 4] | kidney damage, H & E staining [3, 4] | renal crystal deposition, polarized light microscopy [3, 4] | potency compared to Compound A1 (DRAinh-A250) ([1]; FIG. 9) | IC50 ([1]; FIG. 9 concentration-inhibition curves, read-out: IC50 for slc26a3-mediated Cl-/I- exchange) [nM] | IC50 ([1]; representative Class A compounds, Table 3, read-out: IC50) [nM] | time with predicted therapeutic serum concentrations ([2]; 10 mg/kg single dose oral or intraperitoneal) | development of renal failure ([3]; intraperitoneally twice daily for 14 days) | body weight change compared to Day 0 ([3]; intraperitoneally twice daily for 14 days, Day 7 and Day 14) | 3-hour urine oxalate / creatinine ratio ([3]; intraperitoneally twice daily, Day 7 vs Day 0) | serum creatinine ([3]; intraperitoneally twice daily, Day 14)
1 | Cc1c(CC(=O)O)c(=O)oc2c(C)c(OCc3cccc(Br)c3)ccc12 [Compound A1] | full reversibility; also recorded: fully and reversibly inhibited | 150 | 100 to 200 | 54 | at least 24 hours | 53.9 ± 6.5 | greatly reduced; also recorded: greatly reduces urine sediment | prevention of kidney damage; also recorded: prevents renal damage | prevention of crystal deposition; also recorded: prevents renal crystal deposition |  |  |  |  |  |  |  | 
2 | Cc1c(CC(=O)O)c(=O)oc2c(C)c(OCc3cccc(I)c3)ccc12 [DRAinh-A270] |  |  |  | 39 |  | 39.3 ± 3.5 |  |  |  | four-fold improved potency | ~50 | 40 | for several days | prevents development of renal failure; also recorded: prevents weight loss, hyperoxaluria and renal failure | maintained their weight better; also recorded: prevents weight loss, hyperoxaluria and renal failure | largely prevented development of hyperoxaluria; also recorded: prevents weight loss, hyperoxaluria and renal failure | normal serum creatinine

From patent US20230339878A1, “SLC26A3 INHIBITORS AND USE THEREOF” (THE REGENTS OF THE UNIVERSITY OF CALIFORNIA, priority 2018, published 2023)
